The source of these data is PubChem BioAssay (NCI).

Common to all, as to assay: growth of human tumour cells (NCI), 48 h
Assay [1] relates to NCI-H226 lung.
The test system of assay [2] is OVCAR-4 ovarian.
For assay [3], the system named is SNB-19 CNS.
The subject of assay [4] is 786-0 renal.
Assay [5] concerns A498 renal.
In assay [6] the test system is MCF7 breast.
Assay [7] concerns NCI/ADR-RES ovarian.
In assay [8] the test system is PC-3 prostate.
For assay [9], the system named is RPMI-8226 leukemia.
Assay [10] has as its system CAKI-1 renal.
Assay [11] relates to COLO 205 colon.
Assay [12] relates to MDA-N.
Assay [13] has as its system SK-MEL-28 melanoma.
Assay [14] deals with IGROV1 ovarian.
The subject of assay [15] is NCI-H23 lung.
Assay [16] relates to HOP-92 NSCLC.

Molecules are shown by their SMILES.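 Where inhibition never reached the appropriate level, the endpoint shown equals the highest concentration tested. Otherwise, values were interpolated linearly from a five-concentration, 48-hour dose response in 96-well plates. The concentration for full growth arrest is given as TGI.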

`CCCCCCCCCCCCCCCCCc1cccc(OCOCCOC)c1C(=O)O`: the TGI in assay [1] was found to be 32.3 µM; in [2], 34.8 µM; in [3], 40.6 µM; in assay [4] it was 35.2 µM; in [5] it was 32.2 µM; in [6], 43.2 µM. The TGI in [7] is 28.6 µM; in assay [8] it was 34.4 µM; in assay [9] it was greater than 72.7 µM; in assay [10] it was 35.1 µM; in assay [11] it was 39.7 µM; in [12], 38.8 µM. Further, the TGI stood at 38.2 µM in assay [13], 33.5 µM in assay [14], 30.1 µM in [15] and 35.8 µM in assay [16].
Regarding `S=c1[nH]nc(CNc2ccc(-c3n[nH]c(=S)n3-c3ccc(Cl)cc3)cc2)n1-c1ccc(Cl)cc1`, the TGI was greater than 100 µM in assay [1]; greater than 100 µM in assay [2]; greater than 100 µM in assay [3]; 70 µM in assay [4]; greater than 100 µM in assay [5]; greater than 100 µM in assay [6]. Besides, the TGI in [7] is greater than 100 µM; in assay [8], greater than 100 µM; in assay [9], 78 µM; in assay [10], 40.7 µM; in assay [11], 38.9 µM; in [12] it was 86.1 µM. For the same compound, the TGI is 64.2 µM in assay [13], 47.1 µM in assay [14], greater than 100 µM in assay [15] and 59.1 µM in assay [16].
On to `Cc1cn([C@@H]2C[C@@H]2CO)c(=O)[nH]c1=O`, for which the TGI in [1], in [2], in [3], in [4], in [5] and in [6] was greater than 100 µM throughout. Further, the TGI in [7], in [8], in assay [9], in assay [10], in [11] and in assay [12] was greater than 100 µM throughout. Besides, the TGI in [13], in assay [14], in assay [15] and in [16] was greater than 100 µM in each case.
As for `COC(=O)/C=C1\C(=O)N(C(C)=O)c2ccc(Br)cc21`, the TGI in assay [1] was 29.4 µM; in [2], 25.9 µM; in assay [3], 27.9 µM; in assay [4] it was 18 µM; in [5], 51.6 µM; in [6] it was 16.8 µM. The TGI in assay [7] is 36.9 µM; in assay [8], 20.9 µM; in assay [9], 6.95 µM; in assay [10] it was greater than 47 µM; in [11] it was 27.8 µM; in assay [12] it was 24 µM. Moreover, the TGI is 28.6 µM in assay [13], 20.7 µM in assay [14], 32.4 µM in [15] and 29.5 µM in [16].
As to `O=P12N(CCN1c1ccccc1)CCN2c1ccccc1`, the TGI in assay [1], in assay [2], in assay [3], in assay [4], in assay [5] and in assay [6] was greater than 100 µM throughout. Also, the TGI in [7], in assay [8], in assay [9], in assay [10], in assay [11] and in assay [12] was greater than 100 µM throughout. In addition, the TGI in assay [13], in assay [14], in assay [15] and in assay [16] was greater than 100 µM each time.
As to `O=C1NC(=O)C(F)(n2cc(F)c(=O)[nH]c2=O)C(O)N1` (stereo unspecified), the TGI in [1], in [2], in assay [3], in assay [4], in assay [5] and in [6] was greater than 10 µM each time. For the same compound, the TGI in assay [7], in assay [8], in assay [9], in assay [10], in assay [11] and in [12] was greater than 10 µM throughout. Besides, the TGI in [13], in [14], in assay [15] and in assay [16] was greater than 10 µM in each case.
